Patent publication US20040062739A1, “Use of carbohydrates to improve skin barrier function” (SOCIETE L'OREAL S.A., priority 2000, published 2004)

Tests used:
Type in all cases: biochemical
[1] = tested on: other glycosidases of the stratum corneum; assay: enzymatic test of stratum corneum glycosidases with PNP chromogenic substrate: other glycosidases; details: FIG. 1; activity relative to value without compound; pH 4.5, 37° C.
Procedure: (§1) In order to determine the nature and importance of the barrier effect of a carbohydrate derivative in accordance with the invention, the influence of O-octanoyl-6′-maltose on glycosidase activity was studied using the following enzymatic test: The assay was carried out in a 96 well plate. A mixture comprising the following was produced: 75μl of a 10 mM solution of specific chromogenic substrate coupled to paranitrophenol (PNP); 10 μl of 700 mM citrate buffer/200 mM sodium phosphate, pH 4.5; 55 μl of a 0.5 M solution of O-octanoyl-6′-maltose [α-D-glucopyannosyl-1-4-D-glucopyranose]; 40 μl of a solution of soluble glycosidases from the stratum corneum. This solution was obtained simply by scratching the forearm into a 70 mM sodium citrate buffer, pH 4.5 containing 1% of Tween 20 and eliminating cell debris by sequential filtering through a membrane with a pore size of 0.45 and of 0.22 μm. The measurements were carried out by quantifying the yellow coloration after incubation at 37° C. for a period in the range 1h30 and 48 hours.

[2] = tested on: thermostable recombinant glycosidases (Clonezyme); assay: effect on thermostable recombinant glycosidases sold by Clonezyme; details: FIG. 3; increasing concentrations; 7 glycosidases tested
Procedure: O-octanoyl-6′-maltose was also tested for its effect on glycosidases sold by Clonezyme.

[3] = tested on: β-D-glucosidase in the stratum corneum; assay: enzymatic test of stratum corneum glycosidases with PNP chromogenic substrate: β-glucosidase
Procedure: as §1

Row | effect on recombinant glycosidases, first group of enzymes [2] | effect on recombinant glycosidases, second group of enzymes [2] | stimulation of recombinant glycosidases, third group of enzymes, of their base activity [2] | concentration giving maximum stimulation of β-D-glucosidase activity ([3]; increasing product concentrations, about 40 mM (1%)) | Structure (SMILES) | effect on the other glycosidases of the stratum corneum [1] | effect on β-glucosidase activity of the stratum corneum ([3]; FIG. 1, activity relative to value without compound, pH 4.5, 37° C.) | stimulation of β-D-glucosidase activity ([3]; different concentrations, FIG. 2)
1 | insensitive | inhibited | up to 400% | about 40 mM | CCCCCCCC(=O)OC[C@H]1O[C@H](O[C@H]2[C@H](O)[C@@H](O)C(O)O[C@@H]2CO)[C@H](O)[C@@H](O)[C@@H]1O (stereo partly drawn) [O-octanoyl-6′-maltose, O-octanoyl-6′-maltose [α-D-glucopyranosyl-1-4-D-glucopyranose]] | either indifferent to the presence of O-octanoyl-6′-maltose or very slightly inhibited | only β-glucosidase had kinetics influenced | –
2 | – | – | – | – | OC[C@H]1O[C@H](O[C@H]2[C@H](O)[C@@H](O)[C@H](O)O[C@@H]2CO)[C@H](O)[C@@H](O)[C@@H]1O [maltose] | – | – | Neither maltose alone nor glucose alone could stimulate β-D-glucosidase activity
